The MIC is the lowest concentration found to suppress growth.

The test system of test [1] is bacteria, fungi and yeasts. To be noted: general statement, no test described, cited from earlier work.
Test [2] relates to bacteria, fungi and yeasts. The experiment in a line: Antimicrobial efficacy, summary statements over the organisms tested. The format is cell-based. The method, then:
Below, the antimicrobial efficacy of a composition according to the invention consisting of 50% by weight of isosorbide caprylate 1 and 50% by weight of phenoxyethanol against bacteria, fungi and yeasts is examined (hereinbelow, the composition is referred to as “composition A”). For the tests with bacteria, composition A was diluted with butyl polyglycol and then, at 50° C., added to liquid CASO agar (casein-peptone agar) buffered to pH 7 (+/−0.2) in various concentrations (hereinbelow referred to as compositions B1, B2, etc.). For the tests with fungi and yeasts, composition A was diluted with butyl polyglycol and then added to liquid Sabouraud 4% dextrose agar buffered to pH 5.6 (+/−0.2) in various concentrations (hereinbelow referred to as compositions PH1, PH2, etc.). […]
(§1) The minimum inhibitory concentrations for the pure substances isosorbide caprylate 1 and phenoxyethanol were determined analogously. […]
(§2) Analogously to the determination of the antimicrobial activity according to the above example B), the antimicrobial activity of a mixture comprising, firstly, 89.6% by weight of isosorbide dicaprylate and 9.4% by weight of isosorbide monocaprylate (remainder: 1% by weight) (hereinbelow referred to as “isosorbide dicaprylate”) and, secondly, pure isosorbide was determined in further test series.

The test system of a further test is Enterobacter aerogenes. Description: Antimicrobial efficacy, minimum inhibitory concentration (MIC) in agar. It counts as cell-based. As to conditions: Klebsiella aerogenes, CASO agar pH 7, read-out: MIC of isosorbide. The method, then:
(§3) Below, the antimicrobial efficacy of a composition according to the invention consisting of 50% by weight of isosorbide caprylate 1 and 50% by weight of phenoxyethanol against bacteria, fungi and yeasts is examined (hereinbelow, the composition is referred to as “composition A”). For the tests with bacteria, composition A was diluted with butyl polyglycol and then, at 50° C., added to liquid CASO agar (casein-peptone agar) buffered to pH 7 (+/−0.2) in various concentrations (hereinbelow referred to as compositions B1, B2, etc.). For the tests with fungi and yeasts, composition A was diluted with butyl polyglycol and then added to liquid Sabouraud 4% dextrose agar buffered to pH 5.6 (+/−0.2) in various concentrations (hereinbelow referred to as compositions PH1, PH2, etc.). The compositions B1, B2, etc. and PH1, PH2 etc. were each poured into Petri dishes and each inoculated with identical amounts of bacteria, fungi and yeasts. The minimum inhibitory concentration (MIC) is the concentration at which inhibition of the growth of the bacteria, fungi and yeasts in the compositions B1, B2, etc. and PH1, PH2, etc. occurs.
as §1
(§4) The values determined for the minimum inhibitory concentrations “QA” and “QB”, stated in Table 1 below, have already been corrected for the dilution effect of the butyl polyglycol. […]
as §2

Another test concerns Fusarium solani. The test is described as above. The format is cell-based. As to conditions: Sabouraud 4% dextrose agar pH 5.6, read-out: MIC of isosorbide. The method, then: as §3, §1, §4, §2
Another test relates to Candida albicans. Described as above. It counts as cell-based. As to conditions: Sabouraud 4% dextrose agar pH 5.6, read-out: MIC of isosorbide. The method, then: as §3, §1, §4, §2
The subject of a further test is Penicillium funicolosium. The test is described as above. It counts as cell-based. To be noted: Sabouraud 4% dextrose agar pH 5.6, read-out: MIC of isosorbide. The method, then:
as §3, §1, §4, §2

In the next test the test system is Citrobacter freundii. The description is as above. As to conditions: CASO agar pH 7, read-out: MIC of isosorbide. It counts as cell-based. The method, then: as §3, §1, §4, §2
Another test has as its system Proteus vulgaris. Described as above. The format is cell-based. To be noted: CASO agar pH 7, read-out: MIC of isosorbide. The method, then:
as §3, §1, §4, §2

A further test deals with Escherichia coli. Described as above. The format is cell-based. To be noted: CASO agar pH 7, read-out: MIC of isosorbide. The method, then: as §3, §1, §4, §2
For another test, the system named is Aspergillus brasiliensis. The test is described as above. The format is cell-based. As to conditions: Sabouraud 4% dextrose agar pH 5.6, read-out: MIC of isosorbide. The method, then: as §3, §1, §4, §2
A further test has as its system Klebsiella pneumoniae. The description is as above. As to conditions: CASO agar pH 7, read-out: MIC of isosorbide. The format is cell-based. The method, then:
as §3, §1, §4, §2

The test system of the next test is Pseudomonas aeruginosa. The description is as above. The format is cell-based. To be noted: CASO agar pH 7, read-out: MIC of isosorbide. The method, then:
as §3, §1, §4, §2

In a further test the test system is Aspergillus terreus. The test is described as above. The format is cell-based. To be noted: Sabouraud 4% dextrose agar pH 5.6, read-out: MIC of isosorbide. The method, then:
as §3, §1, §4, §2

In a further test the test system is Penicillium minioluteum. The test is described as above. It counts as cell-based. To be noted: Talaromyces minioluteus, Sabouraud 4% dextrose agar pH 5.6, read-out: MIC of isosorbide. The method, then:
as §3, §1, §4, §2

A further test relates to Pseudomonas oleovorans. The description is as above. The format is cell-based. To be noted: Ectopseudomonas oleovorans, CASO agar pH 7, read-out: MIC of isosorbide. The method, then:
(§5) Below, the antimicrobial efficacy of a composition according to the invention consisting of 50% by weight of isosorbide caprylate 1 and 50% by weight of phenoxyethanol against bacteria, fungi and yeasts is examined (hereinbelow, the composition is referred to as “composition A”). For the tests with bacteria, composition A was diluted with butyl polyglycol and then, at 50° C., added to liquid CASO agar (casein-peptone agar) buffered to pH 7 (+/−0.2) in various concentrations (hereinbelow referred to as compositions B1, B2, etc.). […]
(§6) The minimum inhibitory concentrations for the pure substances isosorbide caprylate 1 and phenoxyethanol were determined analogously.
(§7) The values determined for the minimum inhibitory concentrations “MIC mixture”, stated in Table 1 below, are based on the concentrations of composition A.
as §4, §2

A further test deals with Staphylococcus aureus. Described as above. The format is cell-based. As to conditions: CASO agar pH 7, read-out: MIC of isosorbide. The method, then: as §5, §6, §7, §4, §2

Where two headings read alike, the source gives them in different places.

Turning to `CCCCCCCC(=O)O` [caprylic acid], the “antimicrobial activity (in words)” value in [1] (at a pH of 6 or above) is given as “no antimicrobial activity”; in test [1] it was “antimicrobially effective”.
As to isosorbide monocaprylate, the “antimicrobial activity (in words)” value in test [2] (concluded from Tables 1 and 2, not tested as pure compound) was “significant antimicrobial activity”.
`O[C@@H]1CO[C@H]2[C@@H]1OC[C@@H]2O` [isosorbide]: the “antimicrobial activity (in words)” value in [2] (summary of the MICs of Table 2) is on record as “neither isosorbide nor isosorbide dicaprylate are antimicrobially active”. For the same molecule, the MIC in the test with Enterobacter aerogenes, with Fusarium solani, in the test with Candida albicans, with Penicillium funicolosium, in the test on Citrobacter freundii and in the test on Proteus vulgaris was 10000 µg/mL in each case. The minimal inhibitory concentration (MIC) with Escherichia coli, with Aspergillus brasiliensis, with Klebsiella pneumoniae, in the test with Pseudomonas aeruginosa, in the test on Aspergillus terreus and in the test with Penicillium minioluteum was 10000 µg/mL in each case. The MIC in the test with Pseudomonas oleovorans and in the test on Staphylococcus aureus was 10000 µg/mL in each case.
